ChEMBL document CHEMBL3992518, “Peptide Macrocycle Inhibitor of Coagulation Factor XII with Subnanomolar Affinity and High Target Selectivity” (J Med Chem, 2017)
*1 amine or outer side, *2 acyl side, *3 side chain or, on linkers, in order; H or OH if unused. Where a SMILES comes first, the peptide text is derived from it. Bridges are numbered along the chain shown (N, C = ends). TATA = O=C(CC[*:1])N1CN(C(=O)CC[*:2])CN(C(=O)CC[*:3])C1

Biological target: T1, Coagulation factor XII (Homo sapiens, UniProt P00748)
T1 sequence (P00748 whole entry): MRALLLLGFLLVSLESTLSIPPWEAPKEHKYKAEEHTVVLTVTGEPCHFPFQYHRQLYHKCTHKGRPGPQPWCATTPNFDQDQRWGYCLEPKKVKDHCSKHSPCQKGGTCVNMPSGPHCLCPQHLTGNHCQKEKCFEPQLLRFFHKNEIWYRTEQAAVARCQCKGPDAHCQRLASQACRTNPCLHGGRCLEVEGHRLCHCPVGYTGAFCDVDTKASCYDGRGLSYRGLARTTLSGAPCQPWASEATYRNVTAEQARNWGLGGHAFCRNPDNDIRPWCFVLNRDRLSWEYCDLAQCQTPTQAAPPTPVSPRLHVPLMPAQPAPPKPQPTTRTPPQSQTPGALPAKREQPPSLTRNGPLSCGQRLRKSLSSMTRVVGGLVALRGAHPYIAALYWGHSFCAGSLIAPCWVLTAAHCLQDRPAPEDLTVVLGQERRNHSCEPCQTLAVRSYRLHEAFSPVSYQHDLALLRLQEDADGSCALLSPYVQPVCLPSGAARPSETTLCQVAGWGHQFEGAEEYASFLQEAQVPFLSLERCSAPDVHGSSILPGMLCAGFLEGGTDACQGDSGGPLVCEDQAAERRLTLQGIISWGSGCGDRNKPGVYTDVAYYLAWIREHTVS
Test: Inhibition of human beta factor 12a using fluorogenic substrate Boc-Gln-Gly-Arg-AMC preincubated for 10 mins followed by addition of substrate measured every min for 30 mins

Compound	Ki [nM]
CC(C)C[C@@H]1NC(=O)[C@H](CCC(N)=O)NC(=O)[C@H](CCCNC(=N)N)NC(=O)[C@@H]2CSCCC(=O)N3CN(CN(C3)C(=O)CCSC[C@H](NC(=O)[C@@H](N)CCCCN)C(=O)N[C@@H](Cc3ccccc3)C(=O)N[C@@H](CCCNC(=N)N)C(=O)N[C@@H](CC(C)C)C(=O)N3CCC[C@H]3C(=O)N2)C(=O)CCSC[C@@H](C(=O)N[C@@H](CCCNC(=N)N)C(=O)O)NC(=O)[C@H](CCCNC(=N)N)NC1=O (H-KCFRLPCRQLRCR-OH; linker 2-7-12 via TATA)	9
CC(C)C[C@@H]1NC(=O)[C@H](CCC(N)=O)NC(=O)[C@H](CCCNC(=N)N)NC(=O)[C@@H]2CSCCC(=O)N3CN(CN(C3)C(=O)CCSC[C@H](NC(=O)[C@@H](N)CCCNC(=N)N)C(=O)N[C@@H](CCc3ccccc3)C(=O)N[C@@H](CCCNC(=N)N)C(=O)N[C@@H](CC(C)C)C(=O)N3CCC[C@H]3C(=O)N2)C(=O)CCSC[C@@H](C(=O)N[C@@H](CCCNC(=N)N)C(=O)N[C@@H](Cc2c[nH]c3ccccc23)C(=O)O)NC(=O)[C@H](CCCNC(=N)N)NC1=O	366
CC(C)C[C@@H]1NC(=O)[C@H](CCC(N)=O)NC(=O)[C@H](CCCNC(=N)N)NC(=O)[C@@H]2CSCCC(=O)N3CN(CN(C3)C(=O)CCSC[C@H](NC(=O)[C@@H](N)CCCNC(=N)N)C(=O)N[C@@H](Cc3ccccc3)C(=O)N[C@@H](CCCCN)C(=O)N[C@@H](CC(C)C)C(=O)N3CCC[C@H]3C(=O)N2)C(=O)CCSC[C@@H](C(=O)N[C@@H](CCCNC(=N)N)C(=O)N[C@@H](Cc2c[nH]c3ccccc23)C(=O)O)NC(=O)[C@H](CCCNC(=N)N)NC1=O (H-RCFKLPCRQLRCRW-OH; linker 2-7-12 via TATA)	111
CC(C)C[C@@H]1NC(=O)[C@H](CCC(N)=O)NC(=O)[C@H](CCCNC(=N)N)NC(=O)[C@@H]2CSCCC(=O)N3CN(CN(C3)C(=O)CCSC[C@H](NC(=O)[C@@H](N)CCCNC(=N)N)C(=O)N[C@@H](Cc3ccc([N+](=O)[O-])cc3)C(=O)N[C@@H](CCCNC(=N)N)C(=O)N[C@@H](CC(C)C)C(=O)N3CCC[C@H]3C(=O)N2)C(=O)CCSC[C@@H](C(=O)N[C@@H](CCCNC(=N)N)C(=O)N[C@@H](Cc2c[nH]c3ccccc23)C(=O)O)NC(=O)[C@H](CCCNC(=N)N)NC1=O	1.64
CC(C)C[C@@H]1NC(=O)[C@H](CCCNC(=N)N)NC(=O)[C@H](Cc2ccccc2)NC(=O)[C@@H](NC(=O)[C@@H](N)CCCNC(=N)N)CSCCC(=O)N2CN3CN(C2)C(=O)CCSC[C@H](NC(=O)[C@@H]2CCCN2C1=O)C(=O)N[C@@H](CCCNC(=N)N)C(=O)N[C@@H](CCC(N)=O)C(=O)N[C@@H](C(C)C)C(=O)N[C@@H](CCCNC(=N)N)C(=O)N[C@H](C(=O)N[C@@H](CCCNC(=N)N)C(=O)N[C@@H](Cc1c[nH]c2ccccc12)C(=O)O)CSCCC3=O (H-RCFRLPCRQVRCRW-OH; linker 2-7-12 via TATA)	326
CC(C)C[C@@H]1NC(=O)[C@H](CCC(N)=O)NC(=O)[C@H](CCCNC(=N)N)NC(=O)[C@@H]2CSCCC(=O)N3CN(CN(C3)C(=O)CCSC[C@H](NC(=O)[C@@H](N)CCCNC(=N)N)C(=O)N[C@@H](Cc3cccc4ccccc34)C(=O)N[C@@H](CCCNC(=N)N)C(=O)N[C@@H](CC(C)C)C(=O)N3CCC[C@H]3C(=O)N2)C(=O)CCSC[C@@H](C(=O)N[C@@H](CCCNC(=N)N)C(=O)N[C@@H](Cc2c[nH]c3ccccc23)C(=O)O)NC(=O)[C@H](CCCNC(=N)N)NC1=O	10
CC(C)C[C@@H]1NC(=O)[C@H](CCC(N)=O)NC(=O)[C@H](CCCNC(=N)N)NC(=O)[C@@H]2CSCCC(=O)N3CN(CN(C3)C(=O)CCSC[C@H](NC(=O)[C@@H](N)CCCNC(=N)N)C(=O)N[C@@H](CCC3CCCCC3)C(=O)N[C@@H](CCCNC(=N)N)C(=O)N[C@@H](CC(C)C)C(=O)N3CCC[C@H]3C(=O)N2)C(=O)CCSC[C@@H](C(=O)N[C@@H](CCCNC(=N)N)C(=O)N[C@@H](Cc2c[nH]c3ccccc23)C(=O)O)NC(=O)[C@H](CCCNC(=N)N)NC1=O	290
CC(C)C[C@@H]1NC(=O)[C@H](CCC(N)=O)NC(=O)[C@H](CCCNC(=N)N)NC(=O)[C@@H]2CSCCC(=O)N3CN(CN(C3)C(=O)CCSC[C@H](NC(=O)[C@@H](N)CCCNC(=N)N)C(=O)N[C@@H](Cc3ccccc3)C(=O)N[C@@H](CCCNC(=N)N)C(=O)N[C@@H](CC(C)C)C(=O)N[C@@H](CC(C)C)C(=O)N2)C(=O)CCSC[C@@H](C(=O)N[C@@H](CCCNC(=N)N)C(=O)N[C@@H](Cc2c[nH]c3ccccc23)C(=O)O)NC(=O)[C@H](CCCNC(=N)N)NC1=O (H-RCFRLLCRQLRCRW-OH; linker 2-7-12 via TATA)	13
CC(C)C[C@@H]1NC(=O)[C@H](CCC(N)=O)NC(=O)[C@H](CCCNC(=N)N)NC(=O)[C@@H]2CSCCC(=O)N3CN(CN(C3)C(=O)CCSC[C@H](NC(=O)[C@@H](N)CCCNC(=N)N)C(=O)N[C@@H](Cc3ccncc3)C(=O)N[C@@H](CCCNC(=N)N)C(=O)N[C@@H](CC(C)C)C(=O)N3CCC[C@H]3C(=O)N2)C(=O)CCSC[C@@H](C(=O)N[C@@H](CCCNC(=N)N)C(=O)N[C@@H](Cc2c[nH]c3ccccc23)C(=O)O)NC(=O)[C@H](CCCNC(=N)N)NC1=O	57
CC(C)C[C@@H]1NC(=O)[C@H](CCC(N)=O)NC(=O)[C@H](CCCNC(=N)N)NC(=O)[C@@H]2CSCCC(=O)N3CN(CN(C3)C(=O)CCSC[C@H](NC(=O)[C@@H](N)CCCNC(=N)N)C(=O)N[C@@H](Cc3ccccc3)C(=O)N[C@@H](CCCNC(=N)N)C(=O)N[C@@H](CC(C)C)C(=O)N[C@@H](C(C)C)C(=O)N2)C(=O)CCSC[C@@H](C(=O)N[C@@H](CCCNC(=N)N)C(=O)N[C@@H](Cc2c[nH]c3ccccc23)C(=O)O)NC(=O)[C@H](CCCNC(=N)N)NC1=O (H-RCFRLVCRQLRCRW-OH; linker 2-7-12 via TATA)	47
CCCC[C@@H]1NC(=O)[C@H](CCC(N)=O)NC(=O)[C@H](CCCNC(=N)N)NC(=O)[C@@H]2CSCCC(=O)N3CN(CN(C3)C(=O)CCSC[C@H](NC(=O)[C@@H](N)CCCNC(=N)N)C(=O)N[C@@H](Cc3ccccc3)C(=O)N[C@@H](CCCNC(=N)N)C(=O)N[C@@H](CC(C)C)C(=O)N3CCC[C@H]3C(=O)N2)C(=O)CCSC[C@@H](C(=O)N[C@@H](CCCNC(=N)N)C(=O)N[C@@H](Cc2c[nH]c3ccccc23)C(=O)O)NC(=O)[C@H](CCCNC(=N)N)NC1=O	30.6
CC[C@H](C)[C@H](N)C(=O)N[C@H]1CSCCC(=O)N2CN3CN(C2)C(=O)CCSC[C@H](NC(=O)[C@@H]2CCCN2C(=O)[C@H](CC(C)C)NC(=O)[C@H](CCCNC(=N)N)NC(=O)[C@H](Cc2ccccc2)NC1=O)C(=O)N[C@@H](CCCNC(=N)N)C(=O)N[C@@H](CCC(N)=O)C(=O)N[C@@H](CC(C)C)C(=O)N[C@@H](CCCNC(=N)N)C(=O)N[C@H](C(=O)N[C@@H](CCCNC(=N)N)C(=O)O)CSCCC3=O (H-ICFRLPCRQLRCR-OH; linker 2-7-12 via TATA)	83
CCC[C@@H]1NC(=O)[C@H](CCC(N)=O)NC(=O)[C@H](CCCNC(=N)N)NC(=O)[C@@H]2CSCCC(=O)N3CN(CN(C3)C(=O)CCSC[C@H](NC(=O)[C@@H](N)CCCNC(=N)N)C(=O)N[C@@H](Cc3ccccc3)C(=O)N[C@@H](CCCNC(=N)N)C(=O)N[C@@H](CC(C)C)C(=O)N3CCC[C@H]3C(=O)N2)C(=O)CCSC[C@@H](C(=O)N[C@@H](CCCNC(=N)N)C(=O)N[C@@H](Cc2c[nH]c3ccccc23)C(=O)O)NC(=O)[C@H](CCCNC(=N)N)NC1=O	72
Cc1ccc(C[C@@H]2NC(=O)[C@@H](NC(=O)[C@@H](N)CCCNC(=N)N)CSCCC(=O)N3CN4CN(C3)C(=O)CCSC[C@H](NC(=O)[C@@H]3CCCN3C(=O)[C@H](CC(C)C)NC(=O)[C@H](CCCNC(=N)N)NC2=O)C(=O)N[C@@H](CCCNC(=N)N)C(=O)N[C@@H](CCC(N)=O)C(=O)N[C@@H](CC(C)C)C(=O)N[C@@H](CCCNC(=N)N)C(=O)N[C@H](C(=O)N[C@@H](CCCNC(=N)N)C(=O)N[C@@H](Cc2c[nH]c3ccccc23)C(=O)O)CSCCC4=O)cc1	39
CC(C)C[C@@H]1NC(=O)[C@H](CC(=O)O)NC(=O)[C@H](CCCNC(=N)N)NC(=O)[C@@H]2CSCCC(=O)N3CN(CN(C3)C(=O)CCSC[C@H](NC(=O)[C@@H](N)CCCNC(=N)N)C(=O)N[C@@H](Cc3ccccc3)C(=O)N[C@@H](CCCNC(=N)N)C(=O)N[C@@H](CC(C)C)C(=O)N3CCC[C@H]3C(=O)N2)C(=O)CCSC[C@@H](C(=O)N[C@@H](CCCNC(=N)N)C(=O)N[C@@H](Cc2c[nH]c3ccccc23)C(=O)O)NC(=O)[C@H](CCCNC(=N)N)NC1=O (H-RCFRLPCRDLRCRW-OH; linker 2-7-12 via TATA)	550
CC(C)C[C@@H]1NC(=O)[C@H](CCC(=O)O)NC(=O)[C@H](CCCNC(=N)N)NC(=O)[C@@H]2CSCCC(=O)N3CN(CN(C3)C(=O)CCSC[C@H](NC(=O)[C@@H](N)CCCNC(=N)N)C(=O)N[C@@H](Cc3ccccc3)C(=O)N[C@@H](CCCNC(=N)N)C(=O)N[C@@H](CC(C)C)C(=O)N3CCC[C@H]3C(=O)N2)C(=O)CCSC[C@@H](C(=O)N[C@@H](CCCNC(=N)N)C(=O)N[C@@H](Cc2c[nH]c3ccccc23)C(=O)O)NC(=O)[C@H](CCCNC(=N)N)NC1=O (H-RCFRLPCRELRCRW-OH; linker 2-7-12 via TATA)	> 3000
CC(C)C[C@@H]1NC(=O)[C@H](CCC(N)=O)NC(=O)[C@H](CCCNC(=N)N)NC(=O)[C@@H]2CSCCC(=O)N3CN(CN(C3)C(=O)CCSC[C@H](NC(=O)[C@@H](N)CCCNC(=N)N)C(=O)N3CCC[C@H]3C(=O)N[C@@H](CCCNC(=N)N)C(=O)N[C@@H](CC(C)C)C(=O)N3CCC[C@H]3C(=O)N2)C(=O)CCSC[C@@H](C(=O)N[C@@H](CCCNC(=N)N)C(=O)N[C@@H](Cc2c[nH]c3ccccc23)C(=O)O)NC(=O)[C@H](CCCNC(=N)N)NC1=O	36.9
